# Earlier results, collected in patent US10632442B2, “Apparatus for a mass production of monodisperse biodegradable polymer-based microspheres and a multi-channel forming device incorporatable therein” (INVENTAGE LAB, INC., priority 2016, dated 2020).
# Conditions: in vivo
smiles,measurement,value
CO/N=C1\C[C@]2(C[C@@H]3C[C@@H](C/C=C(\C)C[C@@H](C)/C=C/C=C4\CO[C@@H]5[C@H](O)C(C)=C[C@@H](C(=O)O3)[C@]45O)O2)O[C@H](/C(C)=C/C(C)C)[C@H]1C [Moxidectin],AUC,217 ng·days/mL
same,Cmax,5.1 ng/mL
same,Tmax,7 to 10 days
same,T½,35 days
